Here are results for 5 compounds from patent US5968955A, “Disubstituted piperidine derivatives as neuroprotective agents” (Pharmacia & Upjohn S.p.A., priority 1995, dated 1999).

Experiment [1] has as its system mixed cortical neuronal cultures. The experiment in a line: neuroprotection against NMDA induced toxicity in mixed cortical neuronal cultures (Trypan Blue Dye Exclusion). It counts as cell-based, rat (foetal rats). Particulars: prevention of toxicity by NMDA 500 μM, 20 min exposure, 3 min preincubation, viability after 24 h. The protocol:
The efficacy of the compounds of the invention as neuroprotective agents, based upon their ability to prevent EEA induced toxicity in vitro, was evaluated in mixed cortical neuronal cultures, following the method reported below.
Mixed cortical neuronal cultures from foetal rats at 16 days of gestation were prepared as described by Choi (J. Neur. Sci. 7: 357-368, 1987).
Briefly, dissociated cells were plated on poly-L-lysine coated multiwell plates at density of 1*10^5 cells/cm^2 in MEM with Earle's salts supplemented with 21 mM D-glucose, 2 mM L-glutamine, 50 μg/ml Streptomicin, 50 IU Penicillin, 10% Foetal Calf Serum and 10% Horse Serum. Cultures were kept at 37° C., 5% CO2 and survived about 5 weeks. After 7 days in vitro, astrocites proliferation was inhibited by adding 10 μM Cytosine Arabinoside for 48 hours; the medium was subsequently substituted twice a week with a fresh medium without foetal calf serum (Hatley, J. Pharm. and Exp. Ther. 250 (II);752-758, 1989).
Only nature cortical cultures, from 14 DIV on, were used for the study.
Experiments were performed at 25° C. as follows: cells were washed once with a Locke's buffer, (128 mM NaCl, […] KCl, 1.2 mM Na2 HPO4, 2.7 mM CaCl2, 20 mM Hepes and 10 mM D-glucose) pH=7.4, then preincubated with the test compounds for 3 min. followed by a 20 min. exposure to N-methyl-D-aspartate (NMDA) (500 μM).
The incubation was stopped by removing Locke's buffer and substituting the conditioned medium. After 24 hours at 37° C., 5% CO2, Trypan Blue Dye Exclusion Test (0.04%) was used for evaluating the cells viability.

In experiment [2] the test system is focal ischemia in mice (Middle Cerebral Artery occlusion). The experiment in a line: antiischemic activity in vivo in the model of focal ischemia in mice (MCA electrocoagulation), infarct volume. Particulars: male Swiss mice; for Infarct volume: Means ± SEM after MCA occlusion, day 4, 7 mg/Kg i.p. 5 min and 6 h after ischemia, then twice a day on days 2, 3 and 4, saline 20.9 ± 1.7, P < 0.01 from controls. On the set-up: species or system mice (male Swiss CD). How it is done: The antiischemic activity of the compounds of the present invention was evaluated in vivo in the model of focal ischemia in mice.
Focal ischemia was produced in mice by electrocoagulation of the Middle Cerebral Artery (MCA) according the procedure reported by Welsh et al. (Welsh F A, Sakamoto T, McKee A, Sims R E, J Neurochem: 49: 846-851, 1987). Briefly, male Swiss CD mice (C. River, Milan, Italy) were anesthetised with chloral hydrate (500 mg/Kg i.p.); an incision was made on the temporo-parietal region of the head and a small burr hole was drilled into the lateral outer surface of the skull just over the MCA. The stem of the MCA was occluded by microbipolar coagulation. Animals were maintained under an heating lamp during surgery and for two hours afterwards.
Four days after the occlusion, mice were decapitated and the brains stored a -20° C. until sectioned for histological examination.
Coronal sections (50 μm thick) of the frozen brains were taken every 1.00 mm in order to evaluate the infarct volume.
The slices were stained with cresyl violet and the cortical infarct area of each slice was determined by an image analyzing system (Ibas 20, Kontron, Milan, Italy). Infarct volume was calculated from the infarct area on each slice and the distance between succeeding slices.
The treatment schedule consisted in the administration of the tested compound 5 min and 6 h after ischemia during the first day after surgery and then twice a day on days 2, 3 and 4 according to published data (Gotti B. et al.; Brain Research, 522,290-307, 1990). The tested compounds were given i.p. at the dose of 7 mg/Kg.
Dosing was performed till sacrifice. The time schedule, the doses and the route of administration of the tested compounds were selected on the basis of preliminary experiments.

One may read the EC50 as the concentration giving half of the maximal effect. Read a low EC50 as greater potency. `OC(CN1CCC(Cc2ccccc2)CC1)c1cc(Br)no1` (racemic) [Compound 1, (±)-2-(4-Benzyl-piperidin-1-yl)-1-(3-bromo-isoxazol-5-yl) -ethan-1-ol] gave an EC50 in experiment [1] (Rattus norvegicus) of 2020 nM.
Turning to `COc1cc(C(O)CN2CCC(Cc3ccccc3)CC2)on1` (racemic) [Compound 3, (±)-2-(4-Benzyl-piperidin-1-yl)-1-(3-methoxy-isoxazol-5-yl)-ethan-1-ol], the “Effect on infarct volume compared with saline-treated mice (in words)” value in experiment [2] (7 mg/Kg i.p., day 4, versus saline) was “significantly reduce infarct volume”. Moreover, the Infarct volume in experiment [2] (7 mg/kg) is 13.6 ± 1.5 mm^3; in experiment [2] (listed as Example 2, 7 mg/kg), 13.6±1.5 mm^3. Also, a half-maximal effect in experiment [1] (Rattus norvegicus) (EC50) was put at 3290 nM.
Compound `COc1cc(C(O)CN2CCC(C(=O)c3ccc(F)cc3)CC2)on1` (racemic) [Compound 27, (±)2-[4-(p-Fluoro-benzoyl)-piperidin-1-yl]-1-(3-methoxy-isoxazol-5-yl)-ethan-1-ol] had an EC50 in experiment [1] (Rattus norvegicus) of 640 nM.
As for `ON=C(CN1CCC(Cc2ccccc2)CC1)c1cc(Br)no1` [Compound 17, (±)-2-(4-Benzyl-piperidin-1-yl)-1-(3-bromo-isoxazol-5-yl)-ethan-1-one-oxyme], the EC50 in experiment [1] stood at 2130 nM.
`O=C(c1ccc(F)cc1)C1CCN(CC(O)c2cc(Br)no2)CC1` (centres unmarked) [Compound 25, 2-[4-(4-fluoro-benzoyl)piperidin-1-yl]-1-(3-bromo-isoxazol-5-yl)-ethan-1-ol] gave an EC50 in experiment [1] (Rattus norvegicus) of 22000 nM.
